Assay results as given in patent US10111901B2, “Beta-glucan in combination with anti-cancer agents affecting the tumor microenvironment” (Biothera, Inc., priority 2014, dated 2018).

What was measured:
Type in all cases: cell-based, human
[1] = system: CD4 and CD8 T cells; assay: T cell proliferation and activation of PBMCs cultured in plasma from treated whole blood
Procedure: To obtain plasma, whole blood was treated for 6 hours with 25 μg/mL β-glucan or vehicle, spun down and the plasma removed. 50,000 autologous CFSE-labeled PBMCs were cultured in the treated plasma for 3 days in the presence of 50,000 T cell activating CD3/28 beads (DYNABEADS Human T-Activator CD3/CD28 for T Cell Expansion and Activation). At the end of the culture, PBMCs were stained with CD4 and CD8 and T cell proliferation was measured by CFSE dilution.
Next, to show the effect of soluble β-glucan on CD4 and CD8 cell activation, the T cell proliferation assay described above was again carried out. At day 3, however, the cells were stained for markers of activation including Granzyme B production and CD25 upregulation.
To determine whether the enhancement of T cell proliferation by β-glucan is direct or indirect, T cell proliferation assays were carried out as described above except the plasma from untreated (vehicle) whole blood was then either treated with β-glucan or vehicle prior to adding to autologous PBMCs. CFSE dilution was quantitated by Division Index using FLOWJO software and plotted as fold change over vehicle control. The results shown in FIG. 5C indicate that β-glucan's enhanced effect is due to indirect mechanisms.

[2] = system: M2a macrophages; assay: Flow cytometry of CD163 and CD86 on activated M2a macrophages cultured in IL-4; conditions: M2a macrophages cultured in IL-4, immunosuppressive conditions
Procedure: Steps for an alternative method for in vitro culture and characterization of human macrophages that includes activation of M1 and M2 macrophages (designated M1a and M2a macrophages) are outlined below. This methodology was used in the next series of experiments.
Phenotypic and functional evaluation of β-glucan-treated M2a and β-glucan-treated M2 macrophages in the presence of immunosuppressive cytokines was carried out. M2 or M2a macrophages were prepared as described above. On day 3, tumor-conditioned medium (TCM) was added M2 macrophage cultures to account for 70% of the volume of the culture and then evaluated for CD163 expression and functional activity on day 6. […] M2a macrophages were cultured in IL-4 as described above.
The β-glucan-treated M2a macrophages cultured in IL-4 and M2 macrophages cultured in TCM were first evaluated for CD163 and CD86 expression. CD163 and CD86 were evaluated by flow cytometry and median MFI was calculated for isotype control staining and surface antigen staining and the results are shown in Table 5.

[3] = system: M1 macrophages; assay: Flow cytometry of M1/M2-specific markers on M1 macrophages derived from vehicle- or β-glucan-treated whole blood
Procedure: CD14^+ monocytes from human whole blood were enriched using Ficoll gradient and magnetic bead separation. Enriched monocytes (5×10^5 cells per mL) were then cultured in either M1-polarizing (XVivo 10 media (Lonza Group) supplemented with 5% autologous serum and 100 ng/mL recombinant human granulocyte macrophage colony-stimulating factor (rhGM-CSF) (R&D Systems) or M2-polarizing (XVivo 10 media supplemented with 10% autologous serum and 50 ng/mL recombinant human macrophage colony-stimulating factor (rhM-CSF) (R&D Systems) conditions for 6 days. In experiments performed to evaluate the effect of β-glucan, whole blood was first incubated with vehicle (sodium citrate buffer) or 25 μg/mL soluble β-glucan for 2 hours at 37° C. and then the monocytes were isolated and differentiated. Morphology was checked before macrophages were harvested for phenotypic analysis. Culture medium of the day 6 macrophage culture (MCM) was collected, spun down to remove contaminated cell pellet and then frozen down for subsequent cytokine analysis by ELISA or used to setup a co-culture with CD3 & CD28-stimulated CD4 T cells (MCM-CD4 T) for evaluation of either surface markers or CD4 T cell proliferation. The macrophages were used to setup a co-culture with CD3 & CD28- or CD3 only-stimulated CD4 T cells (Mac-CD4 T) on day 6 for evaluation of either surface marker modulation or effect on CD4 T cell proliferation. For Mac-CD4 T cell proliferation study, M1 or M2 macrophages were cultured with CD3 & CD28- or CD3 only-stimulated, CFSE-labeled, autologous CD4 T cells at a 1:10 ratio. T cell proliferation was measured at the end of the experiment (day 9-day 11) by flow cytometry, and results are graphically shown as CFSE-dilution peaks. The assessment of CD3-only stimulated T cells was always done on day 11. Quantitative results were reported as the Division Index (the average number of cell divisions a population underwent) calculated for each of the triplicate wells in each of the culture conditions. Culture supernatants of Mac-CD4 T co-cultures were collected for subsequent cytokine analysis.
M1 and M2 macrophages from vehicle- or β-glucan-treated whole blood were prepared as described above. […] In addition, surface expression of CD86 was enhanced as well as both protein and mRNA levels of PD-L1 (FIG. 2B).
Expression of a panel of markers was evaluated by flow cytometry for vehicle- and β-glucan-treated, high binder-derived M1 and M2 macrophages (CD163 was evaluated twice).
CD163 and CD86 were evaluated by flow cytometry for vehicle- and β-glucan-treated, low binder-derived M1 and M2 macrophages.

[4] = M1 macrophages, high binder, 25 μg/mL

β(1,6)-[poly-(1,3)-D-glucopyranosyl]-poly-β(1,3)-D-glucopyranose [β-glucan]
CD4 and CD8 proliferation (CFSE dilution) ([1]; plasma from whole blood treated 6 hours with 25 μg/mL β-glucan, vs vehicle): significant enhancement
CD4 and CD8 cell activation (Granzyme B production, CD25 upregulation) ([1]; β-glucan-treated plasma, day 3): enhances CD4 and CD8 cell activation
CD86 median MFI [2]: 4572
CD163 median MFI [2]: 309
CD86 median MFI [3, 4]: 2113
CD163 (1) median MFI [3, 4]: 158
CD163 (2) median MFI [3, 4]: 230
CD206 median MFI [3, 4]: 816
CD209 median MFI [3, 4]: 318
CD274 (PD-L1) median MFI [3, 4]: 5563
HLA-DR median MFI ([3]; M1 macrophages, high binder, whole blood treated with 25 μg/mL soluble β-glucan 2 hours): 667
CD86 median MFI ([3]; M1 macrophages, low binder): 3179
CD163 median MFI ([3]; M1 macrophages, low binder): 132
M1 macrophage phenotype (panel of M1/M2-specific markers) ([3]; β-glucan pretreatment of whole blood): did not affect M1 macrophage phenotype
